In the supplement of paper PMC11061612:

How the values were obtained:
[1] = system: TE-10 (Esophageal Squamous Cell Carcinoma); assay: combination Emax (second highest fraction inhibited in the dose matrix, 72 h); higher = more inhibition; extreme values may be limits of the assay
Outline: (§1)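 Bliss excess equals the observed combination effect minus the expected value EA + EB − EA·EB, where EA and EB are the effects of each agent alone. Combination Emax is the second-highest inhibition within the matrix. Inhibition was scaled from CellTiter-Glo 2.0 luminescence, with 0 set by vehicle wells and 1 by blank wells, after 72 hours of two-drug dosing of cells plated in 1536-well plates.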

[2] = system: JVM-2 (B-Cell Non-Hodgkin's Lymphoma); assay: Bliss excess, mean over the matrix (fraction); higher = more synergy
Outline: as §1

[3] = system: MHH-ES-1 (Ewing's Sarcoma); assay: as above
Outline: as §1

[4] = system: Jurkat (T-Lymphoblastic Leukemia); assay: as above
Outline: as §1

A204 (Rhabdomyosarcoma) = assay: as above
Outline: as §1

[5] = system: GA-10 (Burkitt's Lymphoma); assay: as above
Outline: as §1

[6] = system: UACC-812 (Breast Carcinoma); assay: as above
Outline: as §1

[7] = system: JHH-2 (Hepatocellular Carcinoma); assay: as above
Outline: as §1

[8] = system: TE-10 (Esophageal Squamous Cell Carcinoma); assay: as above
Outline: as §1

[9] = system: HCC1395 (Breast Carcinoma); assay: as above
Outline: as §1

WM1552C (Melanoma) = assay: as above
Outline: as §1

[10] = system: DU-4475 (Breast Carcinoma); assay: as above
Outline: as §1

| SMILES | combination Emax [1] | Bliss excess [2] | Bliss excess [3] | Bliss excess [4] | Bliss excess (A204 (Rhabdomyosarcoma)) | Bliss excess [5] | Bliss excess [6] | Bliss excess [7] | Bliss excess [8] | Bliss excess [9] | Bliss excess (WM1552C (Melanoma)) | Bliss excess [10] |
| --- | --- | --- | --- | --- | --- | --- | --- | --- | --- | --- | --- | --- |
| Cc1c2c(nn1C)CSCc1cc(n(C)n1)CSc1cc(c3ccccc3c1)OCCCc1c(C(=O)O)n(C)c3c-2c(Cl)ccc13 [AZD5991] + CCN(CCO)CCCOc1ccc2c(Nc3cc(CC(=O)Nc4cccc(F)c4)[nH]n3)ncnc2c1 [AZD2811] (first compound max 1 µM, 7x7, partner max 1 µM) | 0.848 | 0.032 | 0.0173 | 0.0119 | 0.0358 | -0.0092 | -0.0149 | -0.0213 | -0.0161 | 0.0432 | -0.0095 | 0.075 |
| CC1(C)CCC(CN2CCN(c3ccc(C(=O)NS(=O)(=O)c4ccc(NCC5CCOCC5)c([N+](=O)[O-])c4)c(Oc4cnc5[nH]ccc5c4)c3)CC2)=C(c2ccc(Cl)cc2)C1 [Venetoclax] + C=CCn1c(=O)c2cnc(Nc3ccc(N4CCN(C)CC4)cc3)nc2n1-c1cccc(C(C)(C)O)n1 [AZD1775] (first compound max 1 µM, partner max 1 µM) | 0.856 | 0.0333 | -0.001 | -0.0183 | -0.0433 | -0.0553 | -0.0681 | 0.0531 | 0.0301 | 0.0202 | 0.0354 | -0.0262 |
| C=CCn1c(=O)c2cnc(Nc3ccc(N4CCN(C)CC4)cc3)nc2n1-c1cccc(C(C)(C)O)n1 [AZD1775] + O=C(c1cc(Cc2n[nH]c(=O)c3ccccc23)ccc1F)N1CCN(C(=O)C2CC2)CC1 [Olaparib] (first compound max 1 µM, partner max 10 µM) | 0.858 | 0.0055 | -0.0196 | -0.0088 | -0.0881 | -0.0462 | -0.023 | -0.0609 | -0.0196 | -0.0557 | -0.0941 | 0.0395 |
| COc1cccc(OCCCN)c1-c1cc(Nc2cnc(C#N)cn2)n[nH]1 [Prexasertib] + CCc1c2c(nc3ccc(O)cc13)-c1cc3c(c(=O)n1C2)COC(=O)[C@]3(O)CC [SN-38] (first compound max 1 µM, 7x7, partner max 0.3 µM) | 0.939 | -0.0493 | 0.0134 | -0.005 | -0.0375 | 0.0088 | -0.0633 | 0.0002 | -0.0428 | -0.0466 | -0.0306 | 0.0035 |
| CN(C)CCCOc1ccc(-c2ccc3ncc4c(c3c2)n(C2CCOCC2)c(=O)n4C)cn1 [AZD0156] + C[C@@H]1COCCN1C2=NC(=NC(=C2)C3(CC3)[S@](=N)(=O)C)C4=C5C=CNC5=NC=C4 [AZD6738] (first compound max 1 µM, 7x7, partner max 10 µM) | 0.814 | 0.0025 | 0.0361 | 0.1 | -0.038 | 0.0921 | -0.0108 | -0.0249 | -0.0075 | -0.0245 | 0.0189 | -0.0587 |
| Cc1c2c(nn1C)CSCc1cc(n(C)n1)CSc1cc(c3ccccc3c1)OCCCc1c(C(=O)O)n(C)c3c-2c(Cl)ccc13 [AZD5991] + C=CCn1c(=O)c2cnc(Nc3ccc(N4CCN(C)CC4)cc3)nc2n1-c1cccc(C(C)(C)O)n1 [AZD1775] (first compound max 1 µM, partner max 1 µM) | 0.942 | -0.0165 | -0.0496 | -0.0066 | 0.0348 | -0.053 | -0.0343 | -0.063 | -0.0235 | -0.0172 | -0.0651 | -0.0582 |
| CCc1c2c(nc3ccc(O)cc13)-c1cc3c(c(=O)n1C2)COC(=O)[C@]3(O)CC [SN-38] + CN(C)CCCOc1ccc(-c2ccc3ncc4c(c3c2)n(C2CCOCC2)c(=O)n4C)cn1 [AZD0156] (first compound max 0.3 µM, 7x7, partner max 1 µM) | 0.725 | 0.0156 | 0.0449 | 0.059 | 0.0736 | 0.0494 | 0.034 | 0.0204 | 0.0444 | -0.0024 | 0.0013 | 0.0129 |
| C[C@@H]1COCCN1c1cc(C2([S@](C)(=N)=O)CC2)nc(-c2ccnc3[nH]ccc23)n1 [AZD6738] + O=C(c1cc(Cc2n[nH]c(=O)c3ccccc23)ccc1F)N1CCN(C(=O)C2CC2)CC1 [Olaparib] (first compound max 10 µM, 7x7, partner max 10 µM) | 0.78 | -0.0708 | 0.0366 | 0.0592 | -0.0075 | -0.0726 | -0.0422 | -0.0152 | -0.0141 | 0.0255 | 0.0105 | 0.0762 |
| CC1(C)CCC(CN2CCN(c3ccc(C(=O)NS(=O)(=O)c4ccc(NCC5CCOCC5)c([N+](=O)[O-])c4)c(Oc4cnc5[nH]ccc5c4)c3)CC2)=C(c2ccc(Cl)cc2)C1 [Venetoclax] + C1CN(CCC1(C(=O)N[C@@H](CCO)C2=CC=C(C=C2)Cl)N)C3=NC=NC4=C3C=CN4 [Capivasertib] (first compound max 1 µM, 7x7, partner max 3 µM) | 0.506 | -0.0118 | -0.01 | -0.016 | -0.0358 | -0.0614 | -0.0212 | 0.0139 | -0.04 | -0.0806 | -0.0834 | 0.0239 |
| CCN(CCO)CCCOc1ccc2c(Nc3cc(CC(=O)Nc4cccc(F)c4)[nH]n3)ncnc2c1 [AZD2811] + C[C@@H]1COCCN1C2=NC(=NC(=C2)C3(CC3)[S@](=N)(=O)C)C4=C5C=CNC5=NC=C4 [AZD6738] (first compound max 1 µM, 7x7, partner max 10 µM) | 0.794 | -0.0809 | -0.0145 | 0.0336 | -0.0492 | -0.057 | -0.0303 | -0.0196 | -0.0869 | -0.0579 | -0.0468 | 0.0045 |
| CCN(CCO)CCCOc1ccc2c(Nc3cc(CC(=O)Nc4cccc(F)c4)[nH]n3)ncnc2c1 [AZD2811] + C=CCn1c(=O)c2cnc(Nc3ccc(N4CCN(C)CC4)cc3)nc2n1-c1cccc(C(C)(C)O)n1 [AZD1775] (first compound max 1 µM, partner max 1 µM) | 0.737 | 0.0686 | 0.0089 | 0.0809 | 0.0168 | 0.0303 | -0.0352 | 0.0198 | 0.0176 | -0.0904 | 0.0035 | 0.0523 |
| CC1(C)CCC(CN2CCN(c3ccc(C(=O)NS(=O)(=O)c4ccc(NCC5CCOCC5)c([N+](=O)[O-])c4)c(Oc4cnc5[nH]ccc5c4)c3)CC2)=C(c2ccc(Cl)cc2)C1 [Venetoclax] + Cn1cnc2c(F)c(Nc3ccc(Br)cc3Cl)c(C(=O)NOCCO)cc21 [Selumetinib] (first compound max 1 µM, 7x7, partner max 3 µM) | 0.415 | 0.0617 | -0.0424 | 0.0054 | -0.0293 | -0.0622 | -0.0297 | 0.016 | -0.0404 | -0.0171 | -0.0062 | -0.0057 |
